Experimental data from patent US5444069A, “Imidazo-pyridine angiotensin II antagonists used to treat memory loss” (Warner-Lambert Company, priority 1994, dated 1995).

Tests used:
[1] = target: T1, AT2 receptor (rabbit uterus receptor preparations) (Oryctolagus cuniculus, UniProt G1T351); assay: displacement of 3H-angiotensin II from rabbit uterus receptor preparations; assay type: binding; conditions: read-out: IC50 Values in Rabbit Uterine Preparations
T1 construct: cell membrane preparations derived from rabbit uterus and corpus luteum; from tissue; host or cells: rabbit uterus, cell membrane preparation
T1 sequence (G1T351 1-363): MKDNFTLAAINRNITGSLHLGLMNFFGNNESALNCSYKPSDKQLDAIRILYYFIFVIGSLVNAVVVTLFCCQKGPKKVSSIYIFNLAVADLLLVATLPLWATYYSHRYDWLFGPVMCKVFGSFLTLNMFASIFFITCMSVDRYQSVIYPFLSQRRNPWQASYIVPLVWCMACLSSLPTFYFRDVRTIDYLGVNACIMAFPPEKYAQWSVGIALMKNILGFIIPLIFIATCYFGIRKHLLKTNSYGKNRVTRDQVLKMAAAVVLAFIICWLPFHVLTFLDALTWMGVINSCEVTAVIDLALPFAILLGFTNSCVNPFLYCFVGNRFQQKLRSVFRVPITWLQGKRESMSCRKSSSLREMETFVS
Source text: AT2 receptors are known to exist in organs of the female reproductive system. […] More specifically, AT2 receptors are densely located on granulosa cells in atretic follicles of the ovary.

[2] = target: T2, AT2 receptor (whole rat brain) (Rattus norvegicus, UniProt P35351); assay: angiotensin II receptor binding in whole rat brain (DTT protocol)
T2 construct: IC50 Values in whole Rat Brain Preparations; from tissue; host or cells: whole rat brain
T2 sequence (P35351 1-363): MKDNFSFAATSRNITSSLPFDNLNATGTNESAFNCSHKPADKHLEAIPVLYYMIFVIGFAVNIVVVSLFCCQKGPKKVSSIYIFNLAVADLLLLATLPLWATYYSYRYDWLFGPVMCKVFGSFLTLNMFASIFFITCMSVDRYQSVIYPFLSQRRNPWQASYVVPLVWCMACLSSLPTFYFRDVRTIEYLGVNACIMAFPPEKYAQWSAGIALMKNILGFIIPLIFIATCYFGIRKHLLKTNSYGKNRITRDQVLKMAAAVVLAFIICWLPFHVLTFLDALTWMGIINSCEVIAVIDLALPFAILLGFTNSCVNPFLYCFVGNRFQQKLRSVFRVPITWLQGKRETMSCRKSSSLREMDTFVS
Source text: Since receptor-specific binding in whole brain is low and is a mixture of two subtypes, an alternative protocol (Bennett and Snyder, Eur. J. Pharmacol., 67, 11-25) was used. This method includes DTT and thereby eliminates binding at AT1 receptors, thus-allowing evaluation of AT2 receptor events.

[3] = system: rat striatum acetylcholine (ACh); assay: effect on rat striatal acetylcholine (ACh) levels; assay type: in vivo; conditions: for ACh concentration, rat striatum: vehicle 61.0 ± 2.33; for ACh, rat striatum, time course: control 65.4 ± 2.47
Protocol: ACh concentrations were determined as described below. Each
Results were analyzed by a oneway

[4] = system: angiotensin II receptors (AT1 and AT2), rat brain regions; assay: displacement of 125I-angiotensin II from receptor preparations of rat brain regions; assay type: binding
Protocol: The concentration of all three antagonist compounds in these experiments is 1 μM (above the maximal effect concentration).

[5] = system: angiotensin II receptors (AT1/AT2) of corpus luteum; assay: inhibition of 125I-angiotensin II binding, corpus luteum; parameters: species or system rabbit; conditions: 1 μM; 125I-angiotensin II; data from Warner-Lambert Co.
[6] = estrous cycles in the mature female rat; assay type: in vivo; conditions: for Length of cycles: Pre Rx 4; for Number of cycles observed: Pre Rx 10
Protocol: Female rats underwent vaginal smearing every morning for 5 weeks; rats with regular 4-day cycles (proestrus, estrus, metestrus, diestrus) were chosen for further study. Groups of rats (n=5) were implanted with Alzet osmotic minipumps (Model 2ML2) containing Example 1 or vehicle on the afternoon of estrus (approximately 2 PM). Drug-treated animals received 30 mg/kg/day Example I for 14 days. Cycles were continually monitored throughout the treatment period and for an additional 20 to 22 days posttreatment.
Vehicle-treated animals continued to cycle in a 4-day pattern throughout the study.

[7] = system: angiotensin II receptors (AT1/AT2) of granulosa cell; conditions: cited from earlier work
[8] = system: AT2 receptor, ovarian cells; conditions: Pucell et al., Endocrinology 1991; cited from earlier work
[9] = system: rat hippocampus acetylcholine (ACh); assay: effect on rat hippocampal acetylcholine (ACh) levels; conditions: 30 mg/kg IP, 0.5 h; ± SEM; vehicle 23.9 ± 2.39; * p < 0.05
Protocol: Thirty minutes after dosing, the rats were sacrificed by exposure to microwave irradiation. […] Haloperidol (2 mg/kg, IP) provides a positive control.
dosing ACh concentrations were determined as described below.

[10] = effect on renal free water clearance in anesthetized dogs; conditions: for Free Water Clearance: predose -0.24 ± 0.05, mean ± SE
Source text: Dogs were anesthetized with sodium pentobarbital after an overnight fast. Animals were placed on a prewarmed surgical table, intubated and prepared for renal clearance experiments. Femoral arteries were cannulated for aortic blood pressure measurements and for blood sampling. A femoral vein was cannulated and used for the infusion of inulin. A left flank incision was made to expose the kidney and ureter. An electromagnetic flow probe was placed on the left renal artery and the left ureter was cannulated for urine collection. An intrarenal infusion of 5% dextrose in water (D5W, 50 μL/min) was administered throughout the protocol except during drug treatment intervals. A priming dose of 50 mL D5W containing 200 mg/kg insulin was administered to each dog via the femoral vein catheter and then followed by a sustained infusion of inulin in D5W (15 mg/mL, 0.075 mL/min/kg).
A clearance consisted of a timed urine collection with a midpoint blood sample. […] These last two clearances were designated as postdose.
Plasma and urinary electrolytes were determined with an ion selective electrode analyzer. Urine and plasma inulin concentrations were assayed using an anthrone colorimetric method (Davidson, et al, J. Lab and Clin. Med., 1963, 62, 351-356). Renal clearances and fractional excretion were calculated using standard formulas (Vander, Renal Physiology, 4th ed, pp 44-52 (1991)).

[11] = 10 mg/kg IP, 0.5 h, ± SEM, * p < 0.05

Structure (SMILES): Cc1cc(Cn2cnc3c2C[C@@H](C(=O)O)N(C(=O)C(c2ccccc2)c2ccccc2)C3)ccc1N(C)C [Example 1]
- IC50 [1]: 21 nM
- IC50 [2]: 200 nM
- ACh concentration, rat striatum ([3]; 1 mg/kg IP, 0.5 h, ± SEM): 57.9 ± 1.86 nM/g
- ACh concentration, rat striatum [3, 11]: 48.1 ± 0.99 nM/g
- ACh, rat striatum, time course [3, 11]: 37.6 ± 2.10 nM/g
- ACh, rat striatum, time course ([3]; 10 mg/kg IP, 1.0 h, ± SEM, * p < 0.05): 47.9 ± 2.24 nM/g
- ACh, rat striatum, time course ([3]; 10 mg/kg IP, 3.0 h, ± SEM, * p < 0.05): 50.2 ± 4.53 nM/g
- ACh, rat striatum, time course ([3]; 10 mg/kg IP, 6.0 h, ± SEM): 55.8 ± 4.28 nM/g
- ACh, rat striatum, time course ([3]; 10 mg/kg IP, 24.0 h, ± SEM): 61.3 ± 2.30 nM/g
- time of peak ACh lowering effect ([3]; 10 mg/kg, IP): 0.5 h
- time for ACh levels to return to control levels ([3]; 10 mg/kg, IP, gradual return): 24 h
- ACh, Striatum (Table V) ([3]; 30 mg/kg IP, 0.5 h, ± SEM, vehicle 52.9 ± 1.72, * p < 0.05): 39.7 ± 0.99 nM/g
- ACh concentration, rat striatum ([3]; 30 mg/kg IP, 0.5 h, ± SEM, * p < 0.05): 37.6 ± 2.10 nM/g
- ACh concentration, rat striatum ([3]; 60 mg/kg IP, 0.5 h, ± SEM, * p < 0.05): 41.1 ± 1.89 nM/g
- striatal ACh lowering compared with haloperidol (in words) ([3]; IP, haloperidol 2 mg/kg): matched the efficacy of haloperidol
- ACh content in brain tissues (in words) ([3]; Tables IV, V and VI): lowers ACh content in brain tissues in a dose dependant and time dependant manner
- displacement of 125I-angiotensin II in rat brain areas (in words) ([4]; 1 μM per text, each area of brain examined): displace a fraction of the ^125 I-angiotensin II that is displaced by saralasin
- 125I-Angiotensin II Bound, Brain Stem ([4]; rat brain stem, antagonist 10 μM, total 2124): 1258 cpm
- 125I-Angiotensin II Bound, Cerebellum ([4]; rat cerebellum, antagonist 10 μM, total 571): 446 cpm
- 125I-Angiotensin II Bound, Cortex ([4]; rat cortex, antagonist 10 μM, total 766): 507 cpm
- 125I-Angiotensin II Bound, Cortical Neurons ([4]; rat cortical neurons, antagonist 10 μM, total 2647): 2118 cpm
- 125I-Angiotensin II Bound, Striatal Membrane ([4]; rat striatal membrane, antagonist 10 μM, total 2462): 1838 cpm
- % Inhibition with 1 μM Antagonist, Corpus luteum [5]: 3%
- cyclicity during treatment (in words) ([6]; 30 mg/kg/day, 14 days): acyclic during the 14-day treatment interval
- cyclicity posttreatment (in words) ([6]; 20 to 22 days posttreatment): resumed cycling during the posttreatment observation period
- Length of cycles ([6]; Post Rx (20 to 22 days posttreatment), vehicle Post Rx 4): 3.9 days
- Number of cycles observed ([6]; Post Rx (20 to 22 days posttreatment), vehicle Post Rx 5): 4
- Length of cycles ([6]; Rx: 30 mg/kg/day, 14 days, osmotic minipump, vehicle Rx 4.5): 14.4 days
- Number of cycles observed ([6]; Rx: 30 mg/kg/day, 14 days, osmotic minipump, vehicle Rx 3): 1
- effect on menstrual cycle (in words) ([6]; reproductive studies in rats): interrupts the menstrual cycle
- % Inhibition with 1 μM Antagonist, Granulosa cell ([7]; 1 μM, 125I-angiotensin II, adapted from Pucell et al., Endocrinology 1991): 97%
- displacement of 125I-angiotensin II, granulosa cells (in words) ([7]; Table IX): displaces nearly all of the 125I-angiotensin II
- AT2 antagonism in ovarian cells [8]: AT2 antagonistic properties
- ACh, Hippocampus (Table V) [9]: 15.1 ± 1.55 nM/g
- Free Water Clearance, Change from Predose ([10]; 60 min, dose 3 intrarenal): +54%
- Free Water Clearance, Change from Predose ([10]; 90 min, dose 30 intrarenal): +150%
- Free Water Clearance ([10]; 90 min, dose 30 intrarenal, * p = 0.097 vs vehicle): +0.11 ± 0.19 mL/min
- Free Water Clearance, Change from Predose ([10]; 120 min, dose 300 intrarenal): +370%
- Free Water Clearance ([10]; 120 min, dose 300 intrarenal, ** p = 0.015 vs vehicle): +0.64 ± 0.30 mL/min
- Free Water Clearance ([10]; 150 min, postdose (dose 0, after washout), *** p = 0.002 vs vehicle): +0.29 ± 0.10 mL/min
- Free water clearance, increase from predose levels ([10]; intrarenal infusion, cumulative doses 3, 30 and 300 μg/kg/min): up to 370%
- free water clearance (in words) ([10]; versus vehicle control): increase in free water clearance that is dose dependant and statistically significant when compared to the vehicle control
